Here are results for two compounds from patent publication EP0137439A2, “Antitumour agent” (Henkel Kommanditgesellschaft auf Aktien, priority 1983, dated 1985).

Each structure is given as a SMILES string.

In the experiment the test system is Tumorart P 388 (Leukämie). Kind of experiment: P 388 leukemia survival test in mice, NCI protocol 1200. It is filed as in vivo, Mäusen. As to conditions: P 388 i.p. in mice; for 30 Tage überlebende Tiere (von 6): animals out of 6 alive at 30 days; for T/C-Wert: aqueous 1% injection solution, rate of survival prolongation vs untreated animals. An excerpt:
Epoxid-0: gef. 18,94 %, ber. 18,82 % Die nachfolgenden Versuche wurden durchgeführt nach Testvorschriften des National Cancer Institute Bethesda, Maryland 200014, veröffentlicht in "Cancer Chemotherapy Reports" Part. 3, September 1972, Vol. 3, Nr. 2. Als Wirksubstanz wurde 1,2-Diglycidyl-4-diglycidylamino- urazol des vorstehenden Beispiels 1 verwendet. Die Substanz wurde als wäßrige, 1%ige In jektions lösung unmittelbar vor der Applikation frisch hergestellt.
Bei Mäusen wurde gemäß Protokoll 1200 (S. 91c) die Tumorart P 388 (Leukämie) i.p. mit […] gesetzt. Die mittlere Uberlebensdauer der unbehandelten Tiere wird bestimmt.
In weiteren Versuchsgruppen wird entsprechend vorbehandelten Tieren der Wirkstoff applizi-ert. Es wird eine signifikante Verlängerung der Lebensdauer der behandelten Testtiere gegenüber der mittleren Überlebensdauer der nicht mit dem Wirkstoff behandelten Tiere erzielt. Die Verlängerungsrate T/C in Abhängigkeit von der Dosierung des Wirkstoffes ist in der folgenden Tabelle zusammengestellt: […]

For the compound `O=c1n(CC2CO2)c(=O)n(CC2CO2)n1CC1CO1` (stereo not drawn) [Triglycidylurazol], the “30 Tage überlebende Tiere (von 6)” value worked out at 4 (dose 25 mg/kg) and 6 (dose 50 mg/kg). Also, the T/C-Wert by setting is: (dose 25 mg/kg) 260; (dose 50 mg/kg) 300; (dose 6,25 mg/kg) 180; (dose 12,5 mg/kg) 230.

As to `O=c1n(N(CC2CO2)CC2CO2)c(=O)n(CC2CO2)n1CC1CO1` (stereo not drawn) [1,2-Diglycidyl-4-diglycidyl-aminourazol, 1,2-Diglycidyl-4-diglycidylamino-urazol], the T/C-Wert by setting is: (dose 25 mg/kg) 155; (dose 50 mg/kg) above 300; (dose 6,25 mg/kg) 291; (dose 12,5 mg/kg) 142. Besides, the “30 Tage überlebende Tiere (von 6)” value (dose 50 mg/kg) came to 6 and the “30 Tage überlebende Tiere (von 6)” value (dose 6,25 mg/kg) turned out to be 3.
